In patent US20240415819A1, “MACROCYCLIC COMPOUNDS AS PROTEASOME SUBUNIT BETA TYPE-5 INHIBITORS” (Lead Discovery Center GmbH, priority 2021, published 2024):

Assays:
[1] = target: T1, β5 subunit of the human constitutive proteasome (CPS) (Homo sapiens, UniProt P28074); experiment: β5 inhibition assay, human constitutive proteasome (Suc-LLVY-AMC); type: biochemical; settings: IC50 class, Suc-LLVY-AMC substrate
T1 construct: purchased Boston Biochem E-360
Protocol: The enzymatic activity of the β5 subunit of the human constitutive proteasome (CPS) is analyzed. In another assay, which differs from the assay of the human constitutive proteasome only in using the human immunoproteasome (IPS) the enzymatic activity of the β5 subunit of the human immunoproteasome (IPS) is analyzed. […] Inhibition is indicated as IC50 [nM] (“-”=not measured).

[2] = target: T2, β5 subunit of the human immunoproteasome (IPS) (Homo sapiens, UniProt P28062); experiment: β5 inhibition assay, human immunoproteasome (Suc-LLVY-AMC); type: biochemical; settings: IC50 class, Suc-LLVY-AMC substrate
T2 construct: purchased Boston Biochem E-370
In short: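 β5 activity is read as liberated AMC fluorescence (355/460 nm) after 4 h dark reaction at RT with 22.6 μM Suc-LLVY-AMC, stopped by 1 μM bortezomib. Beforehand, 1 nM human IPS and compound sat 10 min at RT in HEPES pH 7.5 buffer containing NaCl, 0.02% SDS and DTT.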

HT-29 cells = experiment: CellTiter-Glo luminescent cell viability assay with HT-29 cells (72h incubation); type: cell-based, human; settings: Homo sapiens, HT-29, HT29 cells, read-out: CTG HT29
In short: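 Viability read as CellTiter-Glo luminescence after 72 h compound exposure, with 10 μM staurosporine and DMSO as control wells. Seeding 400 cells per well, compound added 24 h post-plating; IC50 from curve fitting.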

[3] = tested on: A549 (human lung carcinoma cell line); experiment: Glo assay of A549 cells (Table 3; ProteasomeGlo plating scheme); type: cell-based; settings: Homo sapiens; A549 cells; read-out: PGLo A549
In short: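 IC50 values (nM) come from a cell-based chymotrypsin-like Proteasome-Glo luminescence assay. Compound exposure ran 105 min at 37° C.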

Structure (SMILES)	IC50 [1]	IC50 [2]	IC50 (HT-29 cells)	IC50 [3]
Cc1n[nH]c(CC(=O)N[C@H]2CC(=O)N3CCCC(CCOc4ccc(C)c(c4)CNC(=O)[C@H](CCc4ccccc4)NC2=O)C3)n1 (stereo partly drawn) [Compound 332, 2-(3-methyl-1H-1,2,4-triazol-5-yl)-N-((9S,12S)-5^4-methyl-8,11,14-trioxo-9-phenethyl-4-oxa-7,10-diaza-1(3,1)-piperidina-5(1,3)-benzenacyclotetradecaphane-12-yl)acetamide]	< 0.1 µM	< 0.1 µM	< 0.1 µM	< 0.1 µM
CC(=O)N[C@H]1CCCC(=O)N(C)CCCCOc2ccc(C)c(c2)CNC(=O)[C@H](CCc2ccccc2)NC1=O [Compound 295, N-(1^4,7-dimethyl-8,13,16-trioxo-15-phenethyl-2-oxa-7,14,17-triaza-1(1,3)-benzenacyclooctadecaphane-12-yl)acetamide]	< 0.1 µM	< 0.1 µM	< 0.1 µM	0.1 to 0.5 µM
Cc1ccc2cc1CNC(=O)[C@H](CCc1ccccc1)NC(=O)[C@@H](NC(=O)CC(C)(C)C)CC(=O)N1CCCC(CCO2)C1 (stereo partly drawn) [Compound 28, 3,3-dimethyl-N-((9S,12S)-5^4-methyl-8,11,14-trioxo-9-phenethyl-4-oxa-7,10-diaza-1(3,1)-piperidina-5(1,3)-benzenacyclotetradecaphane-12-yl)butanamide]	< 0.1 µM	< 0.1 µM	< 0.1 µM	< 0.1 µM
Cc1nc(C2NC(=O)[C@@H](NC(=O)OCc3ccccc3)CC(=O)N3CCCC(CCOc4ccc(C)c(c4)CNC2=O)C3)co1 (stereo partly drawn) [Compound 512, benzyl ((12S)-5^4-methyl-9-(2-methyloxazol-4-yl)-8,11,14-trioxo-4-oxa-7,10-diaza-1(3,1)-piperidina-5(1,3)-benzenacyclotetradecaphane-12-yl)carbamate]	< 0.1 µM	< 0.1 µM	< 0.1 µM	< 0.1 µM
CC(=O)N[C@H]1CC(=O)N2CCCC(CCOc3ccc(C)c(c3)CNC(=O)C(c3cn[nH]c3)NC1=O)C2 (stereo partly drawn) [Compound 562, N-((12S)-5^4-methyl-8,11,14-trioxo-9-(1H-pyrazol-4-yl)-4-oxa-7,10-diaza-1(3,1)-piperidina-5(1,3)-benzenacyclotetradecaphane-12-yl)acetamide]	< 0.1 µM	< 0.1 µM	0.1 to 0.5 µM	0.1 to 0.5 µM
Cc1ccc2cc1CNC(=O)C(CCc1cnc3cccnc3c1)NC(=O)[C@@H](NC(=O)OCc1ccccc1)CC(=O)N1CCCC(CCO2)C1 (stereo partly drawn) [Compound 511, benzyl ((12S)-9-(2-(1,5-naphthyridin-3-yl)ethyl)-5^4-methyl-8,11,14-trioxo-4-oxa-7,10-diaza-1(3,1)-piperidina-5(1,3)-benzenacyclotetradecaphane-12-yl)carbamate]	< 0.1 µM	< 0.1 µM	< 0.1 µM	< 0.1 µM
Cc1ccc2cc1CNC(=O)C(CCc1ccncc1)NC(=O)[C@@H](NC(=O)C1(c3ccc(N)cc3)CC1)CC(=O)N1CCCC(CCO2)C1 (stereo partly drawn) [Compound 343, 1-(4-aminophenyl)-N-((12S)-5^4-methyl-8,11,14-trioxo-9-(2-(pyridin-4-yl)ethyl)-4-oxa-7,10-diaza-1(3,1)-piperidina-5(1,3)-benzenacyclotetradecaphane-12-yl)cyclopropane-1-carboxamide]	< 0.1 µM	< 0.1 µM	< 0.1 µM	< 0.1 µM
COc1cccc(CC(=O)N[C@H]2CC(=O)N3CCCC(CCOc4ccc(C)c(c4)CNC(=O)C(c4cnn(C)c4)NC2=O)C3)c1 (stereo partly drawn) [Compound 362, 2-(3-methoxyphenyl)-N-((12S)-5^4-methyl-9-(1-methyl-1H-pyrazol-4-yl)-8,11,14-trioxo-4-oxa-7,10-diaza-1(3,1)-piperidina-5(1,3)-benzenacyclotetradecaphane-12-yl)acetamide]	< 0.1 µM	< 0.1 µM	< 0.1 µM	< 0.1 µM
Cc1ccc2cc1CNC(=O)C(CCc1ccncc1)NC(=O)[C@@H](NC(=O)OCc1ccccc1)CC(=O)N1CCCC(CCO2)C1 (stereo partly drawn) [Compound 336, benzyl ((12S)-5^4-methyl-8,11,14-trioxo-9-(2-(pyridin-4-yl)ethyl)-4-oxa-7,10-diaza-1(3,1)-piperidina-5(1,3)-benzenacyclotetradecaphane-12-yl)carbamate]	< 0.1 µM	< 0.1 µM	< 0.1 µM	< 0.1 µM
CC(=O)N[C@H]1CC(=O)N2CCCC(CCOc3ccc(C)c(c3)CNC(=O)C(c3ccc4ncccc4c3)NC1=O)C2 (stereo partly drawn) [Compound 554, N-((12S)-5^4-methyl-8,11,14-trioxo-9-(quinolin-6-yl)-4-oxa-7,10-diaza-1(3,1)-piperidina-5(1,3)-benzenacyclotetradecaphane-12-yl)acetamide]	< 0.1 µM	< 0.1 µM	< 0.1 µM	0.1 to 0.5 µM
CC(=O)N[C@H]1CC(=O)N2CCCC(CCOc3ccc(C)c(c3)CNC(=O)C(c3cc(C)sn3)NC1=O)C2 (stereo partly drawn) [Compound 556, N-((12S)-5^4-methyl-9-(5-methylisothiazol-3-yl)-8,11,14-trioxo-4-oxa-7,10-diaza-1(3,1)-piperidina-5(1,3)-benzenacyclotetradecaphane-12-yl)acetamide]	< 0.1 µM	< 0.1 µM	< 0.1 µM	< 0.1 µM
Cc1ccc2cc1CNC(=O)[C@H](CCc1ccccc1)NC(=O)[C@@H](NC(=O)Cc1csc(N)n1)CC(=O)N1CCCC(CCO2)C1 (stereo partly drawn) [Compound 302, 2-(2-aminothiazol-4-yl)-N-((9S,12S)-5^4-methyl-8,11,14-trioxo-9-phenethyl-4-oxa-7,10-diaza-1(3,1)-piperidina-5(1,3)-benzenacyclotetradecaphane-12-yl)acetamide]	< 0.1 µM	< 0.1 µM	< 0.1 µM	< 0.1 µM
Cc1ccc2cc1CNC(=O)[C@H](CCc1ccccc1)NC(=O)[C@@H](NC(=O)Cc1nnc(N)s1)CC(=O)N1CCCC(CCO2)C1 (stereo partly drawn) [Compound 310, 2-(5-amino-1,3,4-thiadiazol-2-yl)-N-((9S,12S)-54-methyl-8,11,14-trioxo-9-phenethyl-4-oxa-7,10-diaza-1(3,1)-piperidina-5(1,3)-benzenacyclotetradecaphane-12-yl)acetamide]	< 0.1 µM	< 0.1 µM	< 0.1 µM	< 0.1 µM
CC(=O)N[C@H]1CC(=O)N2CCCC(CCOc3ccc(C)c(c3)CNC(=O)C(c3cnn(C)c3)NC1=O)C2 (stereo partly drawn) [Compound 552, N-((12S)-5^4-methyl-9-(1-methyl-1H-pyrazol-4-yl)-8,11,14-trioxo-4-oxa-7,10-diaza-1(3,1)-piperidina-5(1,3)-benzenacyclotetradecaphane-12-yl)acetamide]	< 0.1 µM	< 0.1 µM	< 0.1 µM	0.1 to 0.5 µM
Cc1ccc2cc1CNC(=O)C(c1cnn(C)c1)NC(=O)[C@@H](NC(=O)[C@@H](C)c1ccccc1)CC(=O)N1CCCC(CCO2)C1 (stereo partly drawn) [Compound 359, (2S)-N-((12S)-5^4-methyl-9-(1-methyl-1H-pyrazol-4-yl)-8,11,14-trioxo-4-oxa-7,10-diaza-1(3,1)-piperidina-5(1,3)-benzenacyclotetradecaphane-12-yl)-2-phenylpropanamide]	< 0.1 µM	< 0.1 µM	< 0.1 µM	< 0.1 µM
CC(=O)N[C@H]1CC(=O)N2CCCC(CCOc3ccc(C)c(c3)CNC(=O)C(CCc3ccncc3)NC1=O)C2 (stereo partly drawn) [Compound 551, N-((12S)-5^4-methyl-8,11,14-trioxo-9-(2-(pyridin-4-yl)ethyl)-4-oxa-7,10-diaza-1(3,1)-piperidina-5(1,3)-benzenacyclotetradecaphane-12-yl)acetamide]	< 0.1 µM	< 0.1 µM	< 0.1 µM	< 0.1 µM
